Test results as given in US20100222289A1, “METHODS FOR DIAGNOSIS AND TREATMENT OF CHRONIC FATIGUE SYNDROME” (CFS Research LLC, priority 2007, published 2010).

Legend:
HCMV [1] = details: cited from earlier work
[2] = test system: Group A herpesvirus CFS (EBV, HCMV, HHV6); experiment: Example 4: Energy Index Point Score (EIPS) in Group A herpesvirus CFS patients on antiviral nucleosides; assay type: in vivo, human
Text: Background and Patient Population The international criteria for diagnosis of CFS was used. With strict confidentiality clinical files of CFS patients were identified by number only. A blinded code was maintained. Data were entered to the Axel computer system and analyzed anonymously. Patients with active EBV infection were identified by the presence of elevated serum ELISA antibodies to Epstein-Barr virus (EBV) IgM viral capsid antigen p18 peptide (Diasorin Inc., Stillwater, Minn.) and/or EBV, Early antigen (diffuse) 47 KD recombinant peptide (Diasorin, Stillwater, Minn.). Patients with active HCMV infection were identified by the presence of HCMV strain AD69 human fibroblast lysate, IgM and IgG ELISA and Copalis light-scatter, HCMV IgM p52 recombinant protein, UL44 and HCMV CM2, UL44 and part UL57 recombinant protein. Elevated IgM and IgG Human Herpesvirus 6 serum antibody titers ≧160 (LabCorp, Dublin, Ohio) were recorded. CFS patients had 24-Hr ECG Holter monitor recordings. When abnormal resting standard ECG and abnormal recurrent oscillating T-waves (flat, inverted) were present at baseline, radionuclide ventriculography by bicycle protocol stress studies were performed. The CFS patients reported here are termed Group A. They had negative IgM, IgG serum antibody titers to Borrelia burgdorferi, Western blot and ELISA; anti-streptolysin 0 titers <200 units; and negative serum IgM and IgG antibody titers to both Ehrlichia chaffeensis and Babesia microti (LabCorp).
Measurement of Degree of Fatigue (Physical Capacity) The Energy Index Point Score (EIPS) is a reliable validated metric assessing the degree of illness of CFS patients. With an EIPS scoring scale for reference on the wall in each examining room, the EIPS was determined by consensus of physician and patient. An EIPS of “0” is a bedridden patient. Patients were seen every 4-6 weeks and EIPS recorded. If an intercurrent illness was present EIPS determinations were delayed for 2 weeks. An EIPS of between 0 and 5 is associated with the presence of CFS. At an EIPS of between 6 and 10, the patient no longer meets criteria for diagnosis of CFS. A change in EIPS of 0.25 is small, a 0.5 change in EIPS is a medium change, and an EIPS change of ≧0.8 is a large effect size (p<0.05).
Valacyclovir and Famciclovir Administration to CFS patients with EBV infection Valacyclovir and famciclovir are pro-drugs well absorbed orally and, after reaching the circulation as acyclovir or penciclovir, respectively, inhibit EBV thymidine kinase efficiently. […]. Here, valacyclovir was the agent of first choice, but when diarrheas to valacyclovir developed, famciclovir was substituted. […]. If the patient weighed over 79.5 Kg, 1500 mg valacyclovir was given at each dose. Valacyclovir is excreted by the kidney by both glomerular filtration and tubular secretion. Valacyclovir renal calculi may result, and patients were advised to drink at least 1500 ml water daily. […]. Valacyclovir, once absorbed orally, is acyclovir in serum.
CFS patients were given valganciclovir. Cautiously beginning, 450 mg daily was administered every morning after a meal for three days, and then increasing dosage to two doses of 450 mg, every morning for three days. They were then given two doses of 450 mg valganciclovir every morning followed by one 12 hours later as a continuing dosage. […] If the patient weighed over 90.0 Kg, 900 mg valganciclovir every 12 hours was given. Dosage was evaluated every 2-6 weeks for ongoing tolerance with normal values of hemograms, platelets and amino transferases and creatinines.

HCMV-EBV subset CFS = experiment: Example 1: subset directed antiviral therapy of HCMV-EBV CFS patients; assay type: in vivo, human; details: for clinical outcome: 10 CFS patients, treated according to subset for mean 2.6±0.4 years; for side effects: mean 2.6±0.4 years treatment
Protocol: Ten patients with chronic fatigue syndrome (CFS) of 1.3-2.6 years duration had elevated serum antibody titers to cytomegalovirus (HCMV), and 9 of these patients also had elevated serum antibody titers to Epstein-Barr virus (EBV). They were classified: HCMV-EBV subset (nine patients) and HCMV subset (one patient) CFS. We determined whether subset classification is required for successful antiviral therapy of CFS.
CFS patients with elevated serum antibody titers to HCMV and EBV were treated with valganciclovir (HCMV) and valacyclovir (EBV) according to subset classification for a mean of 2.6±0.4 years. […] Five patients continue no antiviral drug, and five patients require continuing antiviral suppressive therapy. […] Subset directed antiviral therapy leads to sustained recovery in CFS patients.

HHV6 [3] = details: cited from earlier work
EBV [4] = experiment: simultaneous tests, activity versus EBV compared to HCMV; assay type: cell-based, Epstein-Barr virus
Text: Therefore, valganciclovir was employed in CFS associated with HCMV or HHV6. Valganciclovir is efficiently absorbed as ganciclovir. It […] to human bone marrow progenitor cells and lymphocyte blastogenesis at this dosage. […] Food increases the bioavailability of both valacyclovir and valganciclovir.

HHV6 [5] = details: cited from earlier work; remark: listed apart in the source
[6] = set-up: species or system human; details: in vivo
Protocol: Toxicity of Antiviral Nucleosides Patients were seen every 4 to 6 weeks, EIPS was recorded and complete blood count, aminotransferases, creatinine and urinalyses were done. Also recorded were abnormalities in white blood cells and platelet counts, aminotransferases, weight gain or loss, whether famciclovir was substituted for valacyclovir, dosage change for valganciclovir, valacyclovir, or famciclovir, and whether any of the following occurred: participation in blinded-placebo-controlled study, hospitalization, surgery, recovery, a cessation of medicines by patient choice, cessation of medicines by physician choice, relapse with worsening EIPS and returned for care.

HCMV [7] = details: cited from earlier work; remark: listed apart in the source
[8] = test system: human bone marrow progenitor cells and lymphocyte blastogenesis; details: at this dosage; cited from earlier work
[9] = cited from earlier work
HCMV [10] = details: versus HCMV; read-out: 50% inhibitory concentration; cited from earlier work
[11] = high dose repetitive human studies; cited from earlier work
EBV [12] = details: cited from earlier work
EBV CFS subset = experiment: Example 3: valacyclovir in EBV subset CFS, placebo-controlled trial and 36 month follow-up; assay type: in vivo, human
Protocol: We used subset classification of Epstein-Barr virus (EBV) in chronic fatigue (CFS). We (1) performed (Group 1) a blinded-random placebo-controlled trial of valacyclovir in EBV CFS subset, and (2) followed (Group 2) this EBV subset for thirty-six months. Patients were given valacyclovir 14.3 mg per kg every 6 hours. The validated Energy Index point score (EI) assessing physical functional capacity, Holter monitor, multigated (radionuclide) MUGA rest/stress ventriculographic examination, EBV serum IgM viral capsid antibodies (VCA), and EBV Early Antigen diffuse, (EA) were evaluated.

[13] = EBV single-virus subset (31 pts)
[14] = Group 2, thirty-six month follow-up
[15] = 1 gm doses every 6 hours, 70 kg patients

## CC(C)[C@H](N)C(=O)OCC(CO)OCn1cnc2c(=O)nc(N)[nH]c21 (some centres unmarked) [valganciclovir]
HCMV [1]
  effective therapeutic agent for HCMV: not effective therapeutic agents
[2]; EBV/HCMV subset (38 pts)
  EIPS Change: +1.8
[2]; EBV/HHV6 subset (14 pts)
  EIPS Change: +2.0
[2]; HCMV single-virus subset (15 pts)
  EIPS Change: +1.5
[2]; HCMV/HHV6 subset (7 pts)
  EIPS Change: +1.7
[2]; HHV6 single-virus subset (2 pts)
  EIPS Change: +2.7
HCMV-EBV subset CFS
  clinical outcome: returned to health and remain well
  side effects: No significant side effects
HHV6 [3]
  effective therapeutic agent for HHV6: not effective therapeutic agents
EBV [4]
  activity versus EBV as compared to HCMV: one-tenth as active
HHV6 [5]
  MIC: 0.15 to 0.3 µg/mL
[6]
  aminotransferases: increases in aminotransferases were observed
  changes in hemoglobin or platelet levels: no changes
HCMV [7]
  MIC: 0.15 to 0.3 µg/mL
[8]
  effect on human bone marrow progenitor cells and lymphocyte blastogenesis: inhibitory
[9]; after 0.5-1.0 gm doses
  average peak concentrations (Cmax): 6100 ng/mL

## Nc1nc(O)c2ncn(COC(CO)CO)c2n1 [ganciclovir]
HCMV [10]
  IC50: 530 ± 40 nM

## CC(C)Nc1nc2cc(Cl)c(Cl)cc2n1[C@H]1O[C@@H](CO)[C@H](O)[C@@H]1O [maribavir, 1H-β-L-ribofuranoside-2-isopropylamino-5,6-dichlorobenzimidazole]
[11]
  side effects: changes in taste and headache
HCMV [10]
  IC50: 120 ± 10 nM

## CC(=O)OCC(CCn1cnc2cnc(N)nc21)COC(C)=O [famciclovir]
HCMV [1]
  effective therapeutic agent for HCMV: not effective therapeutic agents
[2]; [13]
  EIPS Change: +2
HHV6 [3]
  effective therapeutic agent for HHV6: not effective therapeutic agents
[6]
  toxicity: no toxicity

## CC(C)[C@H](N)C(=O)OCCOCn1cnc2c(=O)[nH]c(N)nc21 [valacyclovir]
EBV [12]
  minimum inhibitor concentration (MIC): 1.5 to 3.0 µg/mL
HCMV [1]
  effective therapeutic agent for HCMV: not an effective therapeutic antiviral agent
[2]; [13]
  EIPS Change: +2
HCMV-EBV subset CFS
  clinical outcome: returned to health and remain well
  side effects: No significant side effects
HHV6 [3]
  effective therapeutic agent for HHV6: not an effective therapeutic antiviral agent
[6]
  toxicity: no toxicity
EBV CFS subset; Group 1, after six months
  increase in energy expenditure corresponding to EI change: 122 kcal/day
EBV CFS subset; Group 1, after six months, 14.3 mg per kg every 6 hours
  increase in mean least square EI Point Score: +1.12 units
EBV CFS subset; [14]
  EI Point Scores: increased progressively
  abnormal cardiac wall motion: improved
  serum antibody titers to EBV VCA IgM: decreased
  sinus tachycardias: decreased
[9]; [15]
  peak acyclovir levels: 7.9 to 21 µg/mL
  time of peak acyclovir levels: 90 to 120 min
